Experimental data from ChEMBL document CHEMBL4483862, “Open-source discovery of chemical leads for next-generation chemoprotective antimalarials” (2018).

Tested on: Plasmodium berghei
Assay: Luciferase/luciferin-expressing antifolate-resistant parasites were used to infect a culture of HepG2 cells that were pre-incubated with compounds. Infected hepatocytes emit light due to the luciferase reaction. Assay results are presented as the percent inhibition of light emission compared to control. […]
Type: functional
Conditions: sporozoite; for IC90: read-out: LUCIFERASE INFECTION ASSAY - IC90

| Structure (SMILES) | IC90 [µM] | further results |
| --- | --- | --- |
| Cc1c(C(=O)Nc2nonc2-c2ccc(F)cc2)oc2ccc(F)cc12 | 8.3 | IC50 (HEPG2TOX_HILL_SLOPE 16.1, HEPG2TOX_R_SQUARED 0.611, PBLUC_HILL_SLOPE 12, PBLUC_R_SQUARED 0.0677, read-out: LUCIFERASE INFECTION ASSAY - IC50): 6.91 µM |
| Cc1ccc(NC(=O)c2snnc2C)cc1Cl | > 12.3 | IC50 (HEPG2TOX_HILL_SLOPE 16.5, HEPG2TOX_R_SQUARED 0.725, read-out: LUCIFERASE INFECTION ASSAY - IC50): > 12.3 µM |
| NC(Cc1ccccc1)c1csc(Nc2nncc3ccccc23)n1 (centres undefined) | 3.88 | IC50 (HEPG2TOX_HILL_SLOPE 16.4, HEPG2TOX_R_SQUARED 0.287, PBLUC_HILL_SLOPE 15.9, PBLUC_R_SQUARED 0.415, read-out: LUCIFERASE INFECTION ASSAY - IC50): 3.38 µM |
| COc1cccc(NC(=O)N2CCc3nc(NCc4cccc(Oc5ccccc5)c4)ncc3C2)c1 | 3.67 | IC50 (HEPG2TOX_HILL_SLOPE 15.7, HEPG2TOX_R_SQUARED 0.806, PBLUC_HILL_SLOPE 104, PBLUC_R_SQUARED 0.398, read-out: LUCIFERASE INFECTION ASSAY - IC50): 3.59 µM |
| O=C1C=CC(=O)N1Cc1ccccc1 | > 17.6 | IC50 (HEPG2TOX_HILL_SLOPE 16.7, HEPG2TOX_R_SQUARED 0.468, read-out: LUCIFERASE INFECTION ASSAY - IC50): > 17.6 µM |
| NC(=S)N/N=C/c1ccc(Cl)cc1 | > 15.4 | IC50 (HEPG2TOX_HILL_SLOPE 16.1, HEPG2TOX_R_SQUARED 0.56, PBLUC_HILL_SLOPE 1.65, PBLUC_R_SQUARED 0.115, read-out: LUCIFERASE INFECTION ASSAY - IC50): > 15.4 µM |
| O=c1c(Cl)c(Cl)cnn1-c1ccc(Cl)cc1Cl | 3.5 | IC50 (HEPG2TOX_HILL_SLOPE 16.8, 1.83, HEPG2TOX_R_SQUARED 0.839, 0.915, PBLUC_HILL_SLOPE 1.48, 10.9, PBLUC_R_SQUARED 0.768, 0.409, read-out: LUCIFERASE INFECTION ASSAY - IC50): 3.64 µM |
| Cc1ccc(C(=O)Nc2nc(-c3ccccn3)cs2)cc1S(=O)(=O)N1CCCCC1 | 8.14 | IC50 (HEPG2TOX_HILL_SLOPE 16.5, HEPG2TOX_R_SQUARED 0.73, PBLUC_HILL_SLOPE 17.5, PBLUC_R_SQUARED 0.446, read-out: LUCIFERASE INFECTION ASSAY - IC50): 7.18 µM |
| O=C(c1cccc(-c2cccnc2)c1)c1cnc(Nc2ccccc2)[nH]1 | 9.25 | IC50 (HEPG2TOX_HILL_SLOPE 16.4, HEPG2TOX_R_SQUARED 0.215, PBLUC_HILL_SLOPE 5.04, PBLUC_R_SQUARED 0.615, read-out: LUCIFERASE INFECTION ASSAY - IC50): 5.98 µM |
| CCCCC#CC1(O)c2ccccc2C(=O)N1c1ccccc1 (centres undefined) | 9.4 | IC50 (HEPG2TOX_HILL_SLOPE 16.6, HEPG2TOX_R_SQUARED 0.582, PBLUC_HILL_SLOPE 7.49, PBLUC_R_SQUARED 0.197, read-out: LUCIFERASE INFECTION ASSAY - IC50): 7.01 µM |
| Cn1cc(C(=O)Nc2ccc(Sc3ccc(Br)cc3)cc2)cn1 | 6.49 | IC50 (HEPG2TOX_HILL_SLOPE 16.3, HEPG2TOX_R_SQUARED 0.811, PBLUC_HILL_SLOPE 1.99, PBLUC_R_SQUARED 0.873, read-out: LUCIFERASE INFECTION ASSAY - IC50): 2.15 µM |
| COc1cccc(C2=NN(C(=O)c3ccco3)C(c3ccccc3O)C2)c1 (centres undefined) | 8.57 | IC50 (HEPG2TOX_HILL_SLOPE 15.7, HEPG2TOX_R_SQUARED 0.922, PBLUC_HILL_SLOPE 21, PBLUC_R_SQUARED 0.659, read-out: LUCIFERASE INFECTION ASSAY - IC50): 7.72 µM |
| c1ccc(-c2csc3ncnc(NC4CCCCC4)c23)cc1 | 4.21 | IC50 (HEPG2TOX_HILL_SLOPE 16.2, HEPG2TOX_R_SQUARED 0.468, PBLUC_HILL_SLOPE 9.94, 2.76, PBLUC_R_SQUARED 0.433, 0.667, read-out: LUCIFERASE INFECTION ASSAY - IC50): 4.13 µM |
| O=c1[nH]c2ccc(-c3csc(Nc4ccc(Cl)cc4)n3)cc2o1 | > 10 | IC50 (HEPG2TOX_HILL_SLOPE 16.7, HEPG2TOX_R_SQUARED 0.933, PBLUC_HILL_SLOPE 4.05, PBLUC_R_SQUARED 0.109, read-out: LUCIFERASE INFECTION ASSAY - IC50): 7.81 µM |
| CC(=O)c1ccc(-c2ccc(C(=O)Nc3cnc4c(cnn4C(C)C)c3)o2)cc1 | 8.52 | IC50 (HEPG2TOX_HILL_SLOPE 16.5, HEPG2TOX_R_SQUARED 0.628, PBLUC_HILL_SLOPE 4.19, PBLUC_R_SQUARED 0.524, read-out: LUCIFERASE INFECTION ASSAY - IC50): 5.04 µM |
| CCOc1ccc(C(C)NC(=O)c2nc(SC)ncc2Cl)cc1 (centres undefined) | 4.29 | IC50 (HEPG2TOX_HILL_SLOPE 16.5, HEPG2TOX_R_SQUARED 0.52, PBLUC_HILL_SLOPE 11.3, PBLUC_R_SQUARED 0.138, read-out: LUCIFERASE INFECTION ASSAY - IC50): 3.53 µM |

| Structure (SMILES) | IC90 [µM] | further results |
| --- | --- | --- |
| Cn1c(CSCc2nc(-c3ccc(Cl)cc3)cs2)nnc1SCC(=O)Nc1ccc(Cl)cc1 | > 6.15 | IC50 (HEPG2TOX_HILL_SLOPE 16.7, HEPG2TOX_R_SQUARED 0.854, PBLUC_HILL_SLOPE 1.35, PBLUC_R_SQUARED 0.574, read-out: LUCIFERASE INFECTION ASSAY - IC50): > 6.15 µM |
| O=C(Nc1cccc(C(F)(F)F)c1)n1ncc(Sc2ccc(Cl)cc2)c1-c1ccc(Cl)cc1 | 4.72 | IC50 (HEPG2TOX_HILL_SLOPE 15.8, HEPG2TOX_R_SQUARED 0.635, PBLUC_HILL_SLOPE 5.24, PBLUC_R_SQUARED 0.621, read-out: LUCIFERASE INFECTION ASSAY - IC50): 3.11 µM |
| CCN(CC)c1ccc(/C=N/NC(=S)NCC2CCCO2)c(O)c1 (centres undefined) | > 10 | IC50 (HEPG2TOX_HILL_SLOPE 16.0, 27.0, HEPG2TOX_R_SQUARED 0.190, 0.836, PBLUC_HILL_SLOPE 15.6, PBLUC_R_SQUARED 0.223, read-out: LUCIFERASE INFECTION ASSAY - IC50): 8.89 µM |
| COc1cc2c(cc1NC(=O)Cn1cnc(C#N)n1)oc1ccccc12 | > 10 | IC50 (HEPG2TOX_HILL_SLOPE 16.6, HEPG2TOX_R_SQUARED 0.479, read-out: LUCIFERASE INFECTION ASSAY - IC50): > 10 µM |
| Fc1ccc(C(Nc2ncnc3ccsc23)c2cccs2)cc1 (centres undefined) | 6.3 | IC50 (HEPG2TOX_HILL_SLOPE 16.1, HEPG2TOX_R_SQUARED 0.824, PBLUC_HILL_SLOPE 385, PBLUC_R_SQUARED 0.0246, read-out: LUCIFERASE INFECTION ASSAY - IC50): 6.26 µM |
| Cn1ccnc1SCc1n[nH]c(=O)c2ccccc12 | 8.93 | IC50 (HEPG2TOX_HILL_SLOPE 15.9, HEPG2TOX_R_SQUARED 0.771, PBLUC_HILL_SLOPE 3.2, PBLUC_R_SQUARED 0.661, read-out: LUCIFERASE INFECTION ASSAY - IC50): 4.5 µM |
| CN(C)S(=O)(=O)c1cccc(C(=O)Nc2nc3ccc(Oc4ccccc4)cc3s2)c1 | > 10 | IC50 (HEPG2TOX_HILL_SLOPE 15.9, HEPG2TOX_R_SQUARED 0.649, PBLUC_HILL_SLOPE 3.03, PBLUC_R_SQUARED 0.302, read-out: LUCIFERASE INFECTION ASSAY - IC50): 5.87 µM |
| c1ccc(Cn2c(-c3cccnc3)cc3cnc(Nc4ccc(N5CCOCC5)cc4)cc32)cc1 | 8.6 | IC50 (HEPG2TOX_HILL_SLOPE 16.1, HEPG2TOX_R_SQUARED 0.869, PBLUC_HILL_SLOPE 3.82, PBLUC_R_SQUARED 0.619, read-out: LUCIFERASE INFECTION ASSAY - IC50): 4.83 µM |
| c1ccc(-c2nnc3ccc(-c4cccs4)cn23)cc1 | > 10 | IC50 (HEPG2TOX_HILL_SLOPE 16.6, HEPG2TOX_R_SQUARED 0.17, read-out: LUCIFERASE INFECTION ASSAY - IC50): > 10 µM |
| O=C(Cn1nnc(-c2ccccc2)n1)N/N=C/c1c(O)ccc2ccccc12 | > 10 | IC50 (HEPG2TOX_HILL_SLOPE 16.4, HEPG2TOX_R_SQUARED 0.547, PBLUC_HILL_SLOPE 10.9, PBLUC_R_SQUARED 0.367, read-out: LUCIFERASE INFECTION ASSAY - IC50): 8.32 µM |
| N#Cc1cc(Br)c(OCc2c(F)cccc2Cl)c(Br)c1 | 6.23 | IC50 (HEPG2TOX_HILL_SLOPE 16.7, HEPG2TOX_R_SQUARED 0.384, PBLUC_HILL_SLOPE 6.36, PBLUC_R_SQUARED 0.0513, read-out: LUCIFERASE INFECTION ASSAY - IC50): 4.41 µM |
| CCOC(=O)c1cc(C#N)c(Sc2nnc(SC)s2)nc1C(F)(F)F | > 8.12 | IC50 (HEPG2TOX_HILL_SLOPE 16.4, HEPG2TOX_R_SQUARED 0.12, PBLUC_HILL_SLOPE 2.78, PBLUC_R_SQUARED 0.452, read-out: LUCIFERASE INFECTION ASSAY - IC50): 4.34 µM |
| CN(C)c1ccc(-c2cc3c(cn2)nc(Nc2ccccc2)n3C)cc1 | 4.23 | IC50 (HEPG2TOX_HILL_SLOPE 15.7, HEPG2TOX_R_SQUARED 0.892, PBLUC_HILL_SLOPE 14.7, PBLUC_R_SQUARED 0.425, read-out: LUCIFERASE INFECTION ASSAY - IC50): 3.64 µM |
| CS(=O)(=O)N1CCCc2cc(-c3csc(Nc4ccccn4)n3)ccc21 | 2.51 | IC50 (HEPG2TOX_HILL_SLOPE 15.9, HEPG2TOX_R_SQUARED 0.84, PBLUC_HILL_SLOPE 1.6, PBLUC_R_SQUARED 0.55, read-out: LUCIFERASE INFECTION ASSAY - IC50): 0.637 µM |
| CS(=O)(=O)NCCc1ccc(C(=O)Nc2ccc(Cl)c(C(F)(F)F)c2)s1 | > 10 | IC50 (HEPG2TOX_HILL_SLOPE 16.3, HEPG2TOX_R_SQUARED 0.947, PBLUC_HILL_SLOPE 9.17, PBLUC_R_SQUARED 0.224, read-out: LUCIFERASE INFECTION ASSAY - IC50): 8.32 µM |
| O=c1c(Cl)c(Cl)cnn1-c1ccccc1 | > 13.7 | IC50 (HEPG2TOX_HILL_SLOPE 16.5, HEPG2TOX_R_SQUARED 0.386, read-out: LUCIFERASE INFECTION ASSAY - IC50): > 13.7 µM |
